The values that follow come from publication PMC3759464 (PLoS ONE, 2013).

Where two headings read alike, the source gives them in different places.

The target of test [1] is T1, rH4R (Rattus norvegicus, UniProt Q91ZY1). Put plainly: cell-based. On the set-up: gene Hrh4; SF-rH4R-His6: cleavable influenza hemagglutinin signal peptide and FLAG, hexahistidine tag; GTPgammaS: Sf9 membranes co-expressing Galphai2 and Gbeta1gamma2; species or system HEK293T; CRE-luciferase reporter gene assay, inhibition of forskolin-stimulated luminescence, agonist mode. The conditions noted are these: HEK-293T, read-out: rH4R / α.
T1 sequence (Q91ZY1 whole entry): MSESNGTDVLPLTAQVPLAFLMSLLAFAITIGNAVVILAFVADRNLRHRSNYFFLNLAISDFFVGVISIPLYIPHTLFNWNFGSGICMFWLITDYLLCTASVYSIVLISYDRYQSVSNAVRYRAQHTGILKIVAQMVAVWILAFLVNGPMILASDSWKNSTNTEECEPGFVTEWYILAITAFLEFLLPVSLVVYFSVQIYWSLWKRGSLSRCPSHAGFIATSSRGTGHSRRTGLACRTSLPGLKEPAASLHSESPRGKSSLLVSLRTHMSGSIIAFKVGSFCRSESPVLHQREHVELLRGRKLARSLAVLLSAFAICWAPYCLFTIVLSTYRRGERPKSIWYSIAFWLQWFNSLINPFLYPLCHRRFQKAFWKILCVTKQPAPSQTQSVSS

Test [2] concerns the target T2, hH4R (Homo sapiens, UniProt Q9H3N8). Put plainly: cell-based. On the set-up: gene HRH4; SF-hH4R-His6: cleavable influenza hemagglutinin signal peptide and FLAG, hexahistidine tag; stably expressed in HEK293T with CRE-luc2P reporter. The conditions noted are these: HEK293T-CRE-Luc stably expressing SF-H4R-His6, read-out: hH4R / α.
Test [3] deals with T3, mH4R (Mus musculus, UniProt Q91ZY2).
T3 sequence (Q91ZY2 1-391): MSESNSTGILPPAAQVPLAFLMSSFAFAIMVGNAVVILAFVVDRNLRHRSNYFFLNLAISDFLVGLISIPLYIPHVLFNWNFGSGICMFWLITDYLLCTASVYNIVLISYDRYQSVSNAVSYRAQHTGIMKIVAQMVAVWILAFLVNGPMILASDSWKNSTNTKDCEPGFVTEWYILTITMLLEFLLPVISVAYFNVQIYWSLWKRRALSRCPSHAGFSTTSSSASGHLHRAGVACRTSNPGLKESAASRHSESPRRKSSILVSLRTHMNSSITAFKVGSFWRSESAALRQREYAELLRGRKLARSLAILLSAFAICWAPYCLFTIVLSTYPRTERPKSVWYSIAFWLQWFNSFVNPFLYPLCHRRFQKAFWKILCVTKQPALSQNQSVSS
The experiment in a line: cell-based. The arrangement: gene Hrh4; SF-mH4R-His6: cleavable influenza hemagglutinin signal peptide and FLAG, hexahistidine tag; GTPgammaS: Sf9 membranes co-expressing Galphai2 and Gbeta1gamma2; species or system HEK293T-CRE-Luc stably expressing SF-H4R-His6.

The target in test [4] is T1, rH4R. Put plainly: cell-based. On the set-up: gene Hrh4.
For test [5], the target named is T1, rH4R. Put plainly: CRE-luciferase reporter gene assay, HEK293T. In kind it is cell-based. On the set-up: gene Hrh4; SF-rH4R-His6: cleavable influenza hemagglutinin signal peptide and FLAG, hexahistidine tag. The following applies: for rH4R / pEC50 or (pKB): 1 µM forskolin, 5 h, 37 °C, agonist mode; for EC50: read-out: rH4R / pEC50 or (pKB) (converted). On the technique in general: Reporter assays use an easily measured gene product as a stand-in for the process of interest.

Test [6] has as its target T3, mH4R. Put plainly: CRE-luciferase reporter gene assay, HEK293T. Type of test: cell-based. The arrangement: gene Hrh4; SF-mH4R-His6: cleavable influenza hemagglutinin signal peptide and FLAG, hexahistidine tag. The following applies: for mH4R / pEC50 or (pKB): 1 µM forskolin, 5 h, 37 °C, agonist mode; for EC50: read-out: mH4R / pEC50 or (pKB) (converted).
For test [7], the target named is T1, rH4R. Put plainly: […]GTPγS binding, Sf9 membranes. The arrangement: gene Hrh4; SF-rH4R-His6: cleavable influenza hemagglutinin signal peptide and FLAG, hexahistidine tag; GTPgammaS: Sf9 membranes co-expressing Galphai2 and Gbeta1gamma2. In kind it is biochemical. The conditions noted are these: read-out: rH4R / pEC50 or (pKB) (converted). For orientation: GTPγS resists hydrolysis and so accumulates on activated G proteins.

Test [8] deals with T3, mH4R. Put plainly: […]GTPγS binding, Sf9 membranes. On the set-up: gene Hrh4; SF-mH4R-His6: cleavable influenza hemagglutinin signal peptide and FLAG, hexahistidine tag; GTPgammaS: Sf9 membranes co-expressing Galphai2 and Gbeta1gamma2. Type of test: biochemical. The following applies: read-out: mH4R / pEC50 or (pKB) (converted).
The target of test [9] is T1, rH4R. The experiment in a line: CRE-luciferase reporter gene assay, HEK293T. In kind it is cell-based. On the set-up: gene Hrh4; SF-rH4R-His6: cleavable influenza hemagglutinin signal peptide and FLAG, hexahistidine tag. The conditions noted are these: read-out: rH4R / pEC50 or (pKB) (converted).
In test [10] the target is T1, rH4R. Put plainly: cell-based. The arrangement: gene Hrh4. The following applies: HEK293T-CRE-Luc stably expressing SF-H4R-His6, read-out: rH4R / α.
For test [11], the target named is T2, hH4R. Put plainly: cell-based. The following applies: HEK-293T, read-out: hH4R / α. The arrangement: gene HRH4; SF-hH4R-His6: cleavable influenza hemagglutinin signal peptide and FLAG, hexahistidine tag; stably expressed in HEK293T with CRE-luc2P reporter; species or system HEK293T; CRE-luciferase reporter gene assay, inhibition of forskolin-stimulated luminescence, agonist mode.

Test [12] deals with T2, hH4R. Put plainly: cell-based. On the set-up: gene HRH4.
For test [13], the target named is T3, mH4R. Put plainly: cell-based. The arrangement: gene Hrh4. The conditions noted are these: HEK293T-CRE-Luc stably expressing SF-H4R-His6, read-out: mH4R / α / −0.23±0.03.
[14] abbreviates: HEK293T-CRE-Luc stably expressing SF-H4R-His6, read-out: mH4R / α.
[15] abbreviates: HEK293T-CRE-Luc stably expressing SF-H4R-His6, read-out: rH4R / α.
Setting [16] is: HEK293T-CRE-Luc stably expressing SF-H4R-His6, read-out: hH4R / α / −0.32±0.04 / −0.39±0.03.

T2 sequence (Q9H3N8 whole entry): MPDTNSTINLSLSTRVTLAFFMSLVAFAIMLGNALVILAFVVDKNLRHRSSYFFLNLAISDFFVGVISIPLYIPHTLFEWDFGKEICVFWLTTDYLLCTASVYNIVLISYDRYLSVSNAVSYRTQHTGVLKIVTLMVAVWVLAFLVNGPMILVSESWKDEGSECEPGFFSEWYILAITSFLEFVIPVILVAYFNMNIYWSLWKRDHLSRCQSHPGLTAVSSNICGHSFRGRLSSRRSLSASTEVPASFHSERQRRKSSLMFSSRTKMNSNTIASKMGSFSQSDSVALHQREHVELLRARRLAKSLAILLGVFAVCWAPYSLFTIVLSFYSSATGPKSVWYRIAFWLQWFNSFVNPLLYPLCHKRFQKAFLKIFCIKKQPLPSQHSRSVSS

On to `N#CNC(=NCCCCc1cnc[nH]1)NCCSc1ccccc1` [UR-PI376 (14)], for which the Emax was 8 ± 10% at rH4R [1], 102 ± 2% on hH4R [2] and 51 ± 5% on mH4R [3] (setting [14]).
For `NCCc1c[nH]cn1` [compound 1, Histamine], the Emax on hH4R [2], at mH4R [3] (setting [14]) and at rH4R [4] (setting [15]) was 100% each time.
Regarding `C[C@@H](N)Cc1cnc[nH]1` [compound 2, (R)-α-Methylhistamine], the “rH4R / pEC50 or (pKB)” value on rH4R [5] is 5.60±0.12. The “mH4R / pEC50 or (pKB)” value on mH4R [6] stood at 6.16±0.07. Besides, the Emax on hH4R [2] is 103 ± 4%; on mH4R [3] (setting [14]) it was 98 ± 1%; on rH4R [4] (setting [15]), 96 ± 2%.
The corresponding values for `C[C@H](N)Cc1c[nH]cn1` [compound 3, (S)-α-Methylhistamine] are 4.26±0.04, 4.72±0.16, 90 ± 4%, 82 ± 7% and 69 ± 3%.
In the case of `CNCCc1cnc[nH]1` [compound 4, N^α-Methylhistamine], the EC50 on rH4R [5] was 589 nM; at mH4R [6], 575 nM. The Emax on hH4R [2] turned out to be 98 ± 3%; on mH4R [3] (setting [14]), 97 ± 2%; at rH4R [4] (setting [15]), 98 ± 4%.
As to `Cc1nc[nH]c1CCN` [compound 5, 5(4)-Methylhistamine], the EC50 was 933 nM at rH4R [5] and 135 nM at mH4R [6]. Besides, the Emax at hH4R [2] was 97 ± 3%; on mH4R [3] (setting [14]) it was 97 ± 2%; at rH4R [4] (setting [15]), 100 ± 3%.
On to `c1nc(CC2CCNCC2)c[nH]1` [compound 6, Immepip], for which the EC50 is 67.6 nM on rH4R [5] and 141 nM at mH4R [6]. The Emax on hH4R [2] was determined as 98 ± 2%; at mH4R [3] (setting [14]), 95 ± 3%; on rH4R [4] (setting [15]), 93 ± 5%.
The corresponding values for `c1cc(Cc2cnc[nH]2)ccn1` [compound 7, Immethridine] are 1580 nM, 1120 nM, 65 ± 2%, 87 ± 2% and 94 ± 1%.
The corresponding values for `N=C(N)SCCc1cnc[nH]1` [compound 8, Imetit] are 61.7 nM, 38.9 nM, 94 ± 2%, 96 ± 2% and 95 ± 1%.
As for `NC(=NCc1ccc(Cl)cc1)SCCCc1cnc[nH]1` [compound 9, Clobenpropit], the EC50 was 158 nM on rH4R [5] and 186 nM on mH4R [6]. The Emax turned out to be 97 ± 3% on hH4R [2], 55 ± 5% at mH4R [3] (setting [14]) and 37 ± 3% at rH4R [4] (setting [15]). In addition, the Kb on rH4R [7] was 501 nM.
Take `c1ccc(COCCCc2c[nH]cn2)cc1` [compound 11, Proxyfan]: the EC50 at rH4R [5] was 2140 nM; on mH4R [6], 794 nM. The Emax at hH4R [2] came to 68 ± 2%; on mH4R [3] (setting [14]), 88 ± 4%; at rH4R [4] (HEK293T-CRE-Luc stably expressing SF-H4R-His6, read-out: rH4R / α / −0.01±0.06) it was 76 ± 3%.
As for `N#C/N=C(/NCCCCc1c[nH]cn1)NCCSc1ccccc1` [compound 14, 2-cyano-1-[4-(1H-imidazol-4-yl)butyl]-3-[(2-phenylthio)ethyl]guanidine], the Kb on mH4R [8] is 794 nM; at rH4R [9], 7080 nM. At mH4R [6], the EC50 is 245 nM.
On to `CN1CCN(c2cc(NCc3c(Cl)cccc3Cl)nc(N)n2)CC1` [compound 16, ST-1006], for which the Emax at rH4R [10] is -55 ± 12%; on hH4R [2], 91 ± 1%; at mH4R [3] (setting [14]) it was 37 ± 4%.
For `CN1CCN(C2=Nc3cc(Cl)ccc3Nc3ccccc32)CC1` [compound 17, Clozapine], on hH4R [2], the Emax stood at 130 ± 5%.
For `c1ncc(CCCC2CCNCC2)[nH]1` [compound 18, VUF 5681], the EC50 on mH4R [6] was 6310 nM. For the same molecule, the Emax came to 42 ± 2% on mH4R [3] (setting [14]) and 9% on hH4R [11].
Consider `S=C(NC1CCCCC1)N1CCC(c2c[nH]cn2)CC1` [compound 20, Thioperamide], for which the Emax was -20 ± 2% at rH4R [1]; -32 ± 4% on hH4R [12] (HEK293T-CRE-Luc stably expressing SF-H4R-His6, read-out: hH4R / α / −0.31±0.06); -44 ± 2% on mH4R [13].
Regarding `CN1CCN(c2cc(N3Cc4ccccc4C3)nc(N)n2)CC1` [compound 21, ST-1012], the figures for the EC50 on rH4R [5] and on mH4R [6] were 7.59 nM and 32.4 nM, respectively. Also, the Emax was -39 ± 3% on hH4R [12] (HEK293T-CRE-Luc stably expressing SF-H4R-His6, read-out: hH4R / α / −0.31±0.06 / −0.32±0.04); 24 ± 5% at mH4R [3] (HEK293T-CRE-Luc stably expressing SF-H4R-His6, read-out: mH4R / α / −0.23±0.03 / −0.44±0.02); 24 ± 7% on rH4R [4] (HEK293T-CRE-Luc stably expressing SF-H4R-His6, read-out: rH4R / α / −0.20±0.02).
`Nc1nc2c(c(N3CC[C@@H](N)C3)n1)CCCc1ccccc1-2` [compound 22, A 943931]: the figures for the Emax on rH4R [1] and at hH4R [12] (setting [16]) were -6% and -63 ± 7%, respectively.
Take `Nc1nc2c(c(N3CCNCC3)n1)CCC1=C2[C@H]2CCCC[C@H]2O1` [compound 23, A 987306]: the Emax at rH4R [1] was -8%; on hH4R [12] (setting [16]) it was -62 ± 7%.
